Results as given in US6509343B1 (priority 1996, dated 2003).

Tests used:
Type in all cases: in vivo
Pyrenophora teres = Pyrenophora teres test (barley)/curative; details: 6.25 g/ha, curative, 7 days after inoculation
Description: Solvent: 25 parts by weight of N,N-dimethylacetamide
Emulsifier: 0.6 part by weight of alkylaryl polyglycol ether
To produce a suitable preparation of active compound, 1 part by weight of active compound or active compound combination is mixed with the stated amounts of solvent and emulsifier, and the concentrate is diluted with water to the desired concentration.
To test for curative activity, young plants are sprayed with a conidia suspension of Pyrenophora teres. The plants remain in an incubation cabin at 20° C. and 100% relative atmospheric humidity for 48 hours. The plants are subsequently sprayed with the preparation of active compound at the stated application rate.
The plants are placed in a greenhouse at a temperature of about 20° C. and a relative atmospheric humidity of about 80%.
Evaluation is carried out 7 days after the inoculation. 0% means an efficacy which corresponds to that of the control, whereas an efficacy of 100% means that no infection is observed.

Phytophthora infestans = test: whole plant or invertebrate
Fusarium nivale = Fusarium nivale test (triticale)/seed treatment; details: about 3 weeks after sowing
Description: The active compounds are applied as a dry seed dressing. This is prepared by extending the respective active compound with ground mineral to give a finely pulverulent mixture which ensures uniform distribution on the seed surface.
To dress the seed, the infected seed together with the seed dressing is shaken for 3 minutes in a sealed glass flask.
2×100 corns of triticale are sown at a depth of 1 cm in standard soil and cultivated in a greenhouse at a temperature of about 10° C. and a relative atmospheric humidity of about 95% in seed trays which receive a light regimen of 15 hours per day.
About 3 weeks after sowing, the plants are evaluated for symptoms of snow mould. 0% means an efficacy which corresponds to that of the untreated control, while an efficacy of 100% means that no disease is observed.

[1] = Phytophthora infestans, in Solanum lycopersicum, 72 h, read-out: % efficacy

## CC(C)(C)C(O)C(Oc1ccc(Cl)cc1)n1cncn1 (stereo not shown) [(F), triadimenol]
Pyrenophora teres
  Efficacy in %: 0%

## CON=C(C1=NOCCO1)c1ccccc1Oc1ncnc(Oc2ccccc2Cl)c1F [(I)]
Pyrenophora teres
  Efficacy in %: 0%

## COc1ccc(/C(=C\C(=O)N2CCOCC2)c2ccc(Cl)cc2)cc1OC [Dimetomorph (L), dimetomorph]
Phytophthora infestans; [1]
  Emax at 1 g/ha: 0%

## N#Cc1c[nH]cc1-c1cccc(Cl)c1Cl [(Fenpiclonil) z, fenpiclonil]
Fusarium nivale; 75 mg/kg of seed
  Efficacy in %: 67%

## CCNC(=O)NC(=O)/C(C#N)=N/OC [Cymoxanil (M), cymoxanil]
Phytophthora infestans; in vivo
  % efficacy: 12%

## O=C(Nc1ccccc1)N(Cc1ccc(Cl)cc1)C1CCCC1 [(Pencycuron) P, pencycuron]
Fusarium nivale; 25 mg/kg of seed
  Efficacy in %: 29%

## CCC1(C(=O)NC(C)c2ccc(Cl)cc2)C(C)C1(Cl)Cl [(ω), N-(R)-[1-(4-chloro-phenyl)-ethyl]-2,2-dichloro-1ethyl-3t-methyl-1r-cyclopropane-carboxamide]
Phytophthora infestans; [1]
  Emax at 5 g/ha: 3%
